TGI and GI50 data for 24 molecules are collected here from PubChem BioAssay (NCI).

“And” between values parts separate entries of the source, which are not always exact repeats. Equal entries are not always repeated.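 Test compounds were applied to cells in 96-well plates for 48 hours at 5 doses. The concentration for 50% growth inhibition is given as GI50. Definition used: TGI = concentration required for complete inhibition of growth.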 Some results are limits rather than exact numbers.

Test systems include LOX IMVI melanoma; HOP-92 NSCLC; MALME-3M melanoma; SF-268 CNS; OVCAR-5 ovarian; 786-0 renal; SK-MEL-2 melanoma; RPMI-8226 leukemia; CAKI-1 renal.
Assay in all cases: NCI anticancer screen, dose series, 48 h

With `CC(=O)NNc1nc(C)c(C(=O)NNC(=O)C(=O)Nc2ccc(Cl)c([N+](=O)[O-])c2)s1`, the TGI in the test on LOX IMVI melanoma, with HOP-92 NSCLC, in the test with MALME-3M melanoma, in the test with SF-268 CNS, in the test on OVCAR-5 ovarian and in the test with 786-0 renal was more than 100 µM each time. Besides, the TGI in the test on SK-MEL-2 melanoma, in the test on RPMI-8226 leukemia and with CAKI-1 renal was more than 100 µM throughout.
Consider `O=C1C=CC2(CCCCCCC2=O)CC1` (centres undefined), for which the TGI with LOX IMVI melanoma, in the test with HOP-92 NSCLC, with MALME-3M melanoma, in the test with SF-268 CNS, with OVCAR-5 ovarian and with 786-0 renal was more than 100 µM in each case. Besides, the TGI in the test with RPMI-8226 leukemia and in the test with CAKI-1 renal was more than 100 µM in each case.
For the molecule `COc1cc(/C=C/C(=O)c2cccc3ccccc23)cc(OC)c1OC`, the TGI in the test on LOX IMVI melanoma turned out to be 12.1 µM; in the test with MALME-3M melanoma, 24.9 µM; in the test with SF-268 CNS, 18.2 µM; in the test on OVCAR-5 ovarian, 27.5 µM; in the test on 786-0 renal, 14.8 µM; in the test with SK-MEL-2 melanoma, 12.4 µM. Besides, in the test with CAKI-1 renal, the TGI is 23.2 µM.
On to `O=C(CCc1nc(=S)[nH][nH]1)Nc1cc(Cl)ccc1Cl`, for which the TGI in the test with HOP-92 NSCLC, in the test with MALME-3M melanoma, in the test on SF-268 CNS, in the test on OVCAR-5 ovarian, in the test with 786-0 renal and in the test on SK-MEL-2 melanoma was more than 100 µM throughout. For the same molecule, the TGI in the test on RPMI-8226 leukemia and with CAKI-1 renal was more than 100 µM in each case.
As to `NC1=NN(c2ccccc2)C(=O)C1C(=O)C(=O)Nc1ccc(Cl)cc1` (centres undefined), the TGI in the test with LOX IMVI melanoma, in the test on HOP-92 NSCLC, with MALME-3M melanoma, in the test with SF-268 CNS, in the test on OVCAR-5 ovarian and with 786-0 renal was more than 100 µM in each case. In addition, the TGI in the test with SK-MEL-2 melanoma, in the test on RPMI-8226 leukemia and with CAKI-1 renal was more than 100 µM each time.
For the molecule `O=S(=O)(C1=CC(S(=O)(=O)c2ccccc2)COC1)c1ccccc1` (centres undefined), the TGI with LOX IMVI melanoma, in the test on MALME-3M melanoma, in the test with SF-268 CNS, in the test with 786-0 renal, in the test with SK-MEL-2 melanoma and in the test on RPMI-8226 leukemia was more than 100 µM each time. The molecule further had a TGI with CAKI-1 renal of more than 100 µM.
As for `Cc1ccccc1NC(=O)CC1C(=O)Nc2ccccc2S1=O` (centres undefined), the TGI with LOX IMVI melanoma, with HOP-92 NSCLC, in the test on MALME-3M melanoma, in the test with SF-268 CNS, in the test with OVCAR-5 ovarian and in the test on 786-0 renal was more than 100 µM each time. Also, the TGI with SK-MEL-2 melanoma, in the test on RPMI-8226 leukemia and with CAKI-1 renal was more than 100 µM throughout.
On to `O=C(NCCCCCCCCCCCCNC(=O)c1cnc2ccccc2n1)c1cnc2ccccc2n1`, for which the TGI in the test with LOX IMVI melanoma, in the test on MALME-3M melanoma, in the test with SF-268 CNS, in the test with 786-0 renal, with SK-MEL-2 melanoma and in the test on RPMI-8226 leukemia was more than 100 µM throughout. In the test with CAKI-1 renal, the TGI was more than 100 µM.
In the case of `C#CCN(N=O)C(=O)NC(CCCCNC(=O)OCc1ccccc1)C(=O)OCc1ccccc1` (centres undefined), the TGI in the test on LOX IMVI melanoma was 59.1 µM; with HOP-92 NSCLC, 32.6 µM; with MALME-3M melanoma it was 65.1 µM; in the test with SF-268 CNS it was more than 100 µM; in the test with OVCAR-5 ovarian, 84 µM; in the test on 786-0 renal, 32.5 µM. For the same molecule, the values for the TGI in the test with SK-MEL-2 melanoma and in the test with RPMI-8226 leukemia were more than 100 µM and 45.9 µM, respectively.
For `CC(=O)Nc1ccccc1-c1nc2ccccc2nc1-c1ccccc1`, the TGI in the test with HOP-92 NSCLC, in the test with 786-0 renal, in the test on SK-MEL-2 melanoma, in the test on RPMI-8226 leukemia and with CAKI-1 renal was more than 100 µM in each case.
Take `Cc1ccc2nc(NC(=O)C(=O)C(C(=O)c3ccc4ccccc4c3)C3OC(=O)c4ccccc43)sc2c1` (centres undefined): the TGI in the test with LOX IMVI melanoma was 27.7 µM; in the test on HOP-92 NSCLC, 15.2 µM; with MALME-3M melanoma, 22.9 µM; in the test on SF-268 CNS it was 31.3 µM; in the test on OVCAR-5 ovarian, 23.9 µM; with 786-0 renal, 18.5 µM. Moreover, the TGI is 29.3 µM in the test with SK-MEL-2 melanoma, more than 100 µM in the test on RPMI-8226 leukemia and 52.3 µM with CAKI-1 renal.
With `c1ccc2c(c1)[nH]c1cnc3c4ncccc4[nH]c3c12`, the TGI was more than 100 µM in the test with LOX IMVI melanoma; 79.3 µM with HOP-92 NSCLC; more than 100 µM in the test on MALME-3M melanoma; more than 100 µM in the test with SF-268 CNS; more than 100 µM in the test on OVCAR-5 ovarian; more than 100 µM with 786-0 renal. The TGI in the test with SK-MEL-2 melanoma, with RPMI-8226 leukemia and in the test on CAKI-1 renal was more than 100 µM in each case.
For `CC(=O)OC1C[C@H]2C(OC(=O)c3ccccc3)C3C4(OC(C)=O)COC4C[C@H](OC(C)=O)[C@@]3(C)C(OC(C)=O)[C@H](OC(C)=O)C(=C1C)C2(C)C` (some centres undefined), the TGI in the test with LOX IMVI melanoma is more than 100 µM; in the test with MALME-3M melanoma, more than 100 µM; in the test with SF-268 CNS it was more than 100 µM; in the test on OVCAR-5 ovarian, more than 100 µM; in the test with 786-0 renal, more than 100 µM; in the test on SK-MEL-2 melanoma, 97.8 µM. In addition, the TGI with RPMI-8226 leukemia was more than 100 µM; with CAKI-1 renal, 31.4 µM.
`Cc1ccccc1/C=C/c1csnn1`: the TGI is more than 100 µM in the test with LOX IMVI melanoma; more than 100 µM in the test with HOP-92 NSCLC; more than 100 µM in the test on MALME-3M melanoma; more than 71.4 µM in the test with SF-268 CNS; more than 100 µM with OVCAR-5 ovarian; more than 100 µM in the test with 786-0 renal. Besides, the TGI is more than 100 µM with SK-MEL-2 melanoma, 79.7 µM in the test with RPMI-8226 leukemia and more than 100 µM in the test on CAKI-1 renal.
Regarding `CCOC(=O)c1oc2c(OC)ccc3c2c1CCC3`, the TGI with LOX IMVI melanoma, in the test with HOP-92 NSCLC, in the test with MALME-3M melanoma, with SF-268 CNS, in the test with OVCAR-5 ovarian and with 786-0 renal was more than 100 µM throughout. Besides, the TGI in the test on SK-MEL-2 melanoma and in the test with RPMI-8226 leukemia was more than 100 µM throughout.
In the case of `NC(Cc1ccccc1)C(=O)OCN1C(=O)C2C3C=CC(C2C1=O)C1C2C(=O)N(COC(=O)C(N)Cc4ccccc4)C(=O)C2C31` (centres undefined), the TGI in the test on LOX IMVI melanoma is 41.4 µM and 36.8 µM; with HOP-92 NSCLC, 95.4 µM and > 100 µM; with SF-268 CNS, 48.3 µM and 41.6 µM; with OVCAR-5 ovarian, more than 100 µM; in the test on 786-0 renal, 38.2 µM and 38 µM; in the test with RPMI-8226 leukemia, 56.4 µM and 44.7 µM. Further, the TGI in the test with CAKI-1 renal was more than 100 µM. Also, the GI50 in the test on CAKI-1 renal is 37.8 µM and 77.2 µM.
With `COc1ccc(C(c2ccccc2C(=O)O)c2ccc(OC)c3ccccc23)c2ccccc12`, the TGI in the test with LOX IMVI melanoma worked out at 50.6 µM; with HOP-92 NSCLC, 50.8 µM; with MALME-3M melanoma it was 27.9 µM; in the test with OVCAR-5 ovarian, 31.4 µM; in the test on 786-0 renal, 30.5 µM; with RPMI-8226 leukemia it was 20.8 µM. The molecule also registered a TGI in the test with CAKI-1 renal of 63.4 µM.
Regarding `CC12Nc3ccccc3C1=C(c1ccccc1)CC1C(=O)OC(=O)C12` (centres undefined), the TGI with LOX IMVI melanoma, in the test with HOP-92 NSCLC, in the test on MALME-3M melanoma, in the test on SF-268 CNS, in the test on OVCAR-5 ovarian and in the test with 786-0 renal was more than 100 µM each time. Also, the TGI in the test with SK-MEL-2 melanoma and with RPMI-8226 leukemia was more than 100 µM in each case.
On to `CC(=O)OCCOCn1c2ccccc2c2c3c(c4c5ccccc5n(COCCOC(C)=O)c4c21)C(=O)N(Cc1ccccc1)C3=O`, for which the TGI in the test on LOX IMVI melanoma, in the test on HOP-92 NSCLC, in the test on MALME-3M melanoma, in the test with SF-268 CNS, in the test on OVCAR-5 ovarian and with 786-0 renal was more than 100 µM each time. Moreover, the TGI with SK-MEL-2 melanoma and with RPMI-8226 leukemia was more than 100 µM in each case.
`N#CCCN(CCC#N)c1ccc(/C=C(/NC(=O)c2cc([N+](=O)[O-])ccc2Cl)C(=O)N=[N+]=[N-])cc1`: the TGI in the test with LOX IMVI melanoma, in the test on MALME-3M melanoma, with SF-268 CNS, in the test on OVCAR-5 ovarian, in the test on 786-0 renal and in the test on SK-MEL-2 melanoma was more than 100 µM throughout. Also, the TGI in the test with RPMI-8226 leukemia and in the test on CAKI-1 renal was more than 100 µM each time.
On to `CC(Oc1cc2oc(=O)cc(-c3ccccc3)c2cc1Cl)C(=O)O` (centres undefined), for which the TGI in the test on LOX IMVI melanoma, in the test with HOP-92 NSCLC, in the test on MALME-3M melanoma, in the test on SF-268 CNS, in the test on 786-0 renal and in the test on CAKI-1 renal was more than 100 µM each time.
Regarding `O=C1OC(CC(=O)c2ccc(F)cc2)C(Cl)=C1Cl` (centres undefined), the TGI with LOX IMVI melanoma amounted to 31.9 µM; in the test with HOP-92 NSCLC it was 34.7 µM; with MALME-3M melanoma, 33.8 µM; in the test with OVCAR-5 ovarian, 44.9 µM; in the test on 786-0 renal it was 34.3 µM; in the test on SK-MEL-2 melanoma it was 45 µM. For the same molecule, the TGI was more than 100 µM with RPMI-8226 leukemia and 92.8 µM in the test with CAKI-1 renal.
For the molecule `C/C(NNC(=O)c1ccccc1O)=C1\C=Nc2ccccc2S1`, the TGI is more than 100 µM in the test with LOX IMVI melanoma; 27.6 µM in the test with MALME-3M melanoma; more than 100 µM in the test with SF-268 CNS; more than 100 µM in the test on OVCAR-5 ovarian; 29.3 µM with 786-0 renal; 6.79 µM in the test on SK-MEL-2 melanoma. In addition, the TGI in the test with RPMI-8226 leukemia and in the test with CAKI-1 renal was more than 100 µM in each case.
In the case of `CC(C)N(C(=O)C12C3C4C1C1C2C3C41C(=O)C(C)(C)C)C(C)C` (centres undefined), the TGI in the test with LOX IMVI melanoma, in the test with MALME-3M melanoma, in the test on SF-268 CNS, in the test with OVCAR-5 ovarian, in the test with 786-0 renal and in the test with SK-MEL-2 melanoma was more than 100 µM throughout. Moreover, the TGI with RPMI-8226 leukemia and in the test with CAKI-1 renal was more than 100 µM each time.
